One assay has as its system Human immunodeficiency virus. Nature of the assay: In vitro antiviral activity against human immuno deficiency virus was determined. The note with it: Human immunodeficiency virus 1. It counts as functional, organism-based.
Molecule `CC(C)(C)NC(=O)[C@@H]1CCCCN1C[C@@H](O)[C@H](Cc1ccccc1)NC(=O)[C@H](CC(N)=O)NC(=O)c1ccc2ccccc2n1` yielded an IC50 of 17 nM. That is a double-digit nanomolar value.
For `CC(C)(C)NC(=O)[C@@H]1CCCC[C@@H]1C[C@@H](O)[C@H](Cc1ccccc1)NC(=O)[C@H](CC(N)=O)NC(=O)OCc1ccccc1`, the IC50 came to 1000 nM.
`CC(C)(C)NC(=O)[C@@H]1CCCC[C@H]1C[C@@H](O)[C@H](Cc1ccccc1)NC(=O)[C@H](CC(N)=O)NC(=O)c1ccc2ccccc2n1` registered an IC50 of 4 nM. This IC50 is about 250-fold lower than that of the molecule before.
`CC(C)(C)NC(=O)[C@@H]1CCCCN1C[C@@H](O)[C@H](Cc1ccccc1)NC(=O)[C@H](CC(N)=O)NC(=O)OCc1ccccc1` returned an IC50 of 300 nM.
The same measure, in the same setting: the value for `CC(C)(C)NC(=O)[C@@H]1CCCC[C@H]1C[C@@H](O)[C@H](Cc1ccccc1)NC(=O)[C@H](CC(N)=O)NC(=O)OCc1ccccc1` (mixture of isomers) was 40 nM; that for `CC(C)(C)NC(=O)[C@@H]1C[C@@H]2CCCCC2CN1C[C@@H](O)[C@H](Cc1ccccc1)NC(=O)[C@H](CC(N)=O)NC(=O)c1ccc2ccccc2n1` (single isomer, unassigned) was 2 nM.

A further assay deals with Human immunodeficiency virus type 1 protease (Human immunodeficiency virus 1, UniProt Q72874). Description: Inhibitory activity against HIV-1 Protease was determined.
Settings: not given
Turning to `CC(C)(C)NC(=O)[C@@H]1CCCCN1C[C@@H](O)[C@H](Cc1ccccc1)NC(=O)[C@H](CC(N)=O)NC(=O)c1ccc2ccccc2n1`, inhibition was half-maximal at 2 nM (IC50).

For orientation: IC50 means the concentration that inhibits the measured activity by half.

(Values after ChEMBL document CHEMBL1128024, “Carbocyclic analogues of hydroxyethylamine containing inhibitors of HIV proteinase” (Bioorg Med Chem Lett, 1994).)
